# Reference: ChEMBL document CHEMBL3243958, “Bufotenine esters” (J Med Chem, 1979)
# Columns and labels:
# [1] = biological target: Serotonin 1 (5-HT1) receptor (Rattus norvegicus, UniProt P28564+P30940+P19327+P28565); experiment: Antagonist activity at 5-HT1 receptor in Sprague-Dawley rat assessed as inhibition of 5-HT-induced stomach fundus contraction
# [2] = Chloroform to aqueous buffer partition coefficient, log P of the compound at pH 7.4 by shake flask method; format: physicochemical
# [3] = Chemical stability of the compound assessed as ester hydrolysis in Tyrode's solution at 37 degC for 10 to 15 mins; format: physicochemical; conditions: read-out: Drug metabolism
# [4] = Stability in Sprague-Dawley rat stomach fundus strip assessed as hydrolysis; format: ADME, tissue-based; conditions: read-out: Drug metabolism
Compound,pA2 [1],logP [2],degraded [3],metabolised [4]
CN(C)CCc1c[nH]c2ccccc12,6,2.61,,
CC(=O)Oc1ccc2[nH]cc(CCN(C)C)c2c1.O=C(O)C(=O)O,7.71,2.31,5%,< 5%
CCC(=O)Oc1ccc2[nH]cc(CCN(C)C)c2c1.O=C(O)C(=O)O,,5.6,5%,15%
CCCC(=O)Oc1ccc2[nH]cc(CCN(C)C)c2c1.O=C(O)C(=O)O,7.32,,5%,15%
CC(C)C(=O)Oc1ccc2[nH]cc(CCN(C)C)c2c1,,,1%,15%
CN(C)CCc1c[nH]c2ccc(OC(=O)C(C)(C)C)cc12,,,1%,15%
CN(C)CCc1c[nH]c2ccc(O)cc12 [BUFOTENINE],7.41,0.06,,
COc1ccc2[nH]cc(CCN(C)C)c2c1 [MEBUFOTENIN],,3.3,,
